Data from patent US20250381110A1, “SKIN CARE COMPOSITION AND METHOD OF USING THE SAME” (THE PROCTER & GAMBLE COMPANY, priority 2024, published 2025).
Counter-ions that a name gives are not always drawn.

Test system: p62-dependent mitophagy
Assay: Luciferase-p62 assay (Fluc-p62 clearance) in mouse embryonic fibroblasts
Type: cell-based
Conditions: for Mean Luminescence: Luciferase-p62 assay, mouse embryonic fibroblasts (MEFs), compounds at 10 μM; for % Activity over baseline: percentage of Luciferase-p62 clearance relative to baseline (mean luminescence in the absence of doxycycline induction); for % Activity over baseline / % Activity relative to Rapamycin: MEFs, 10 μM; for % Activity relative to Rapamycin: percentage of activity relative to rapamycin tested in the same experiment at the same concentration
Experimental: To identify p62-dependent materials which increase mitophagy, a Luciferase-p62 Assay was established. This method provides an approach to measure the ability of a material to modulate p62-dependent mitophagy by using an inducible firefly luciferase-p62 (Fluc-p62) reporter cell system. In this assay, p62 levels are driven by doxycycline treatment. After levels increased, expression of Fluc-p62 is turned off by removal of doxycycline, materials are then added and assessed for how they affect clearance of Fluc-p62 protein, which is proportionate to cellular mitophagy rates (Kelly et al.). The negative control is doxycycline induced Luc-p62 in the absence of compound or bioactive material treatment and in the presence of vehicle (DMSO).
Test materials including bioactive materials were screened in mouse embryonic fibroblasts (MEFs, Harada et al.) expressing the TET-inducible p62-fluc construct as previously described (Brown et al.). […] Gibson assembly was used to insert firefly luciferase (Fluc) and p62 into the pCW57.1 backbone. Fluc, p62, and pCW57.1 were polymerase chain reaction (PCR) amplified using pfu polymerase (Life technologies) and Gibson assembly primers with 20 base pair (bp) overhangs. PCR products were separated by agarose gel electrophoreses, and fragments excised and purified before use in DNA assembly reaction with NEBuilder HiFi DNA Assembly kit (New England Biolabs). After the assembly, the reaction mix was transformed into NEB3040 Stable Competent Escherichia coli (New England Biolabs). After 24 hours growth at 31 degrees Celsius the plasmid was extracted using QIAprep Spin Miniprep kit (Qiagen). The plasmid was sequenced to confirm correct insertion of Fluc-p62. To generate MEFs stably expressing doxycycline inducible Fluc-p62, HEK293FT cells were transfected with Fluc-p62-pCW57.1 and the ViraPower Packaging Mix (Invitrogen) to produce lentivirus. MEFs were transduced with the obtained lentiviral stock following followed by selection with 1 microgram per milliliter puromycin.Fluc-p62expressing MEFs were maintained in DMEM supplemented with 10 percent fetal bovine serum (FBS), 100 units per milliliter penicillin/streptomycin, and 2 millimolar L-glutamine in a humidified atmosphere containing 5 percent carbon dioxide at 37 degrees Celsius. Cells were plated into white 96 well plates (2,000 cells per well with 100 microliters media) and allowed to settle for 24 hours. […] Subsequently, cells were treated with test materials for 48 hours in normal growth medium and analysed using ONE-Glo™+Tox Luciferase Reporter and Cell Viability Assay (Promega) by following the manufacturer's protocol.
Test compositions and control compositions were prepared as described above in the Luciferase-p62 assay (Method 3) and tested accordingly. The compounds used in this example, as examples of bioactive materials, were from the APExBIO DiscoveryProbe™ Natural Product Library Plus (Houston, TX) and evaluated at equivalent concentrations (10 μM).
Data are additionally calculated as percentage of activity relative to rapamycin, a benchmark control compound tested in the same experiment.

SMILES | Mean Luminescence | % Activity over baseline | % Activity relative to Rapamycin
CC[C@@H](C(=O)[C@@H](C)[C@@H](O)[C@H](C)[C@@H]1O[C@@H]([C@@H](CC)C(=O)O)CC[C@@H]1C)[C@H]1O[C@]2(C=C[C@@H](O)[C@]3(CC[C@@](C)([C@H]4CC[C@](O)(CC)[C@H](C)O4)O3)O2)[C@H](C)C[C@@H]1C [Salinomycin] | 792.70 | 51.01% | 91.91%
CC1(C)S[C@@H]2[C@H](NC(=O)Cc3ccccc3)C(=O)N2[C@H]1C(=O)O [Benzylpenicillin potassium] | 937.79 | 42.04% | 75.75%
CCC12C=CCN3CC[C@@]4(c5ccc(OC)cc5N(C)[C@H]4[C@@](O)(C(=O)OC)[C@@H]1OC(C)=O)[C@@H]32 (stereo partly drawn) [Vindoline] | 930.98 | 42.46% | 76.51%
COc1cc(C(C)=O)ccc1O [Apocynin] | 973.30 | 39.85% | 71.80%
CC(C)C[C@H]1C(=O)N2CCC[C@H]2[C@]2(O)O[C@](NC(=O)[C@@H]3C=C4c5cccc6[nH]c(Br)c(c56)C[C@H]4N(C)C3)(C(C)C)C(=O)N12 [Bromocriptine mesylate] | 685.00 | 57.67% | 103.90%
CCCCCOC(=O)Nc1nc(=O)n([C@@H]2O[C@H](C)[C@@H](O)[C@H]2O)cc1F [Capecitabine] | 918.89 | 43.21% | 77.86%
CC1(C)CC[C@]2(C(=O)O[C@@H]3O[C@H](CO[C@@H]4O[C@H](CO)[C@@H](O)[C@H](O)[C@H]4O)[C@@H](O)[C@H](O)[C@H]3O)CC[C@]3(C)C(=CC[C@@H]4[C@@]5(C)CC[C@H](O[C@@H]6OC[C@H](O)[C@H](O)[C@H]6O)[C@@](C)(CO)[C@@H]5CC[C@]43C)[C@@H]2C1 [Asperosaponin VI] | 955.83 | 40.93% | 73.74%
OCCc1ccc(O)c(O)c1 [Hydroxytyrosol] | 839.13 | 48.14% | 86.74%
CC(=O)[C@H]1CC[C@H]2[C@@H]3CC=C4C[C@@H](O)CC[C@]4(C)[C@H]3CC[C@]12C [Pregnenolone] | 870.09 | 46.23% | 83.29%
O=c1ccn([C@@H]2O[C@H](CO)[C@@H](O)[C@H]2O)c(=O)[nH]1 [Uridine] | 955.62 | 40.94% | 73.77%
NCCCNCCCCNCCCN [Spermine] | 720.40 | 55.48% | 99.96%
CCN1C(=O)C=CC1=O [N-Ethylmaleimide (NEM)] | 668.28 | 58.70% | 105.76%
CSCCC(NC(C)=O)C(=O)O (racemic) [N-Acetyl-DL-methionine] | 973.29 | 39.85% | 71.80%
C[C@H](CCC(=O)O)[C@H]1CC[C@H]2[C@@H]3CC[C@@H]4C[C@H](O)CC[C@]4(C)[C@H]3C[C@H](O)[C@]12C [Deoxycholic acid sodium salt] | 591.12 | 63.47% | 114.35%
O[C@@H]1[C@@H](O)[C@H](OC/C=C/c2ccccc2)O[C@H](CO[C@@H]2OC[C@H](O)[C@H](O)[C@H]2O)[C@H]1O [Rosavin] | 983.74 | 39.20% | 70.64%
O=C(O)Cc1cccc(O)c1 [3-Hydroxyphenylacetic acid] | 888.33 | 45.10% | 81.26%

SMILES | Mean Luminescence | % Activity over baseline | % Activity relative to Rapamycin
COc1ccc(/C=C/C(=O)/C=C(O)/C=C/c2ccc(OC)c(OC)c2)cc1OC [ASC-J9] | 664.12 | 58.96% | 106.23%
Oc1cc(O)cc(/C=C/c2ccc(O)cc2O)c1 [Oxyresveratrol] | 403.74 | 75.05% | 135.22%
C[C@]12CC[C@@H]3c4ccc(O)cc4CC[C@H]3[C@@H]1CCC2=O [Estrone] | 670.65 | 58.55% | 105.50%
CO/N=C(\C(=O)N[C@@H]1C(=O)N2C(C(=O)O)=C(CSC(=O)c3ccco3)CS[C@H]12)c1csc(N)n1 [Ceftiofur HCl] | 781.02 | 51.73% | 93.21%
CC(=O)c1cc(O)ccc1O [2′,5′-Dihydroxyacetophenone] | 709.63 | 56.14% | 101.16%
C=C(C)[C@H]1CC=C(C)C(=O)C1 [(S)-(+)-Carvone] | 802.50 | 50.40% | 90.82%
O=C(O)CC(O)C(=O)O (stereo not drawn) [Malic acid] | 962.28 | 40.53% | 73.03%
OC[C@H]1O[C@H](OCC2O[C@@H](O)[C@H](O)[C@@H](O)[C@@H]2O)[C@H](O)[C@@H](O)[C@H]1O (stereo partly drawn) [Melibiose] | 715.78 | 55.76% | 100.47%
CC(Cc1ccc(O)c(O)c1)C(C)Cc1ccc(O)c(O)c1 (stereo not drawn) [Nordihydroguaiaretic acid] | 964.84 | 40.37% | 72.74%
O=C1O[C@H]([C@@H](O)CO)C(O)=C1O [Vitamin C] | 962.07 | 40.54% | 73.05%
Clc1ccc(C(Cn2ccnc2)OCc2ccsc2Cl)c(Cl)c1 (stereo not drawn) [Tioconazole] | 537.96 | 66.75% | 120.27%
N[C@@H](Cc1c[nH]c2ccc(O)cc12)C(=O)O [Compound 5-HTP] | 902.36 | 44.23% | 79.70%
CC(C)CC(=O)NCC(=O)O [Isovaleroylglycine] | 776.88 | 51.99% | 93.67%
CC(CC(=O)O)CC(=O)O [3-Methylglutaric acid] | 818.33 | 49.43% | 89.05%
O[C@H]1[C@H](O)[C@@H](O)[C@H](O)[C@@H](O)[C@H]1O [myo-Inositol] | 670.16 | 58.58% | 105.55%
